Assay results published in patent US6821959B1, “Antibiotic-natural polysaccharide polymer adducts” (Istituto Biochimico Pavese Pharma S.p.A, priority 1999, dated 2004).
≈ marks a conversion by molar mass, not a printed value.

Columns and labels:
[1] = tested on: field Staphylococcus aureus (strain C); experiment: Minimum inhibiting concentration (MIC) in vitro, dilutions in liquid medium, strain C; assay type: cell-based; conditions: Mueller-Hinton broth pH=7.4, 37° C. 18-24 hours; for MIC: Staphylococcus aureus
Experimental: (§1) To produce a bacterial growth, a strain of Staphylococcus aureus ATCC 6538 P (strain A) and two strains of field Staphylococcus aureus (strains B and C) were used. […] A drop of broth (dilution 1:10) was added to all test tubes, which were incubated at 37° C. for 18-24 hours. Then, the test tube with the highest dilution free of any turbidity was considered as the one containing the minimum inhibiting concentration (MIC).

[2] = tested on: Staphylococcus aureus ATCC 6538 P (strain A); experiment: Minimum inhibiting concentration (MIC) in vitro, dilutions in liquid medium, strain A; assay type: cell-based; conditions: Mueller-Hinton broth pH=7.4, 37° C. 18-24 hours; for MIC: Staphylococcus aureus, ATCC6538
Experimental: as §1

[3] = tested on: field Staphylococcus aureus (strain C); experiment: Inhibition halos, diffusion method, strain C; assay type: cell-based
Source text: (§2) The inhibition halos were obtained through the diffusion method (Farmacopea Ufftclale Italiana, IX ed., page 315), using a culture medium “Mueller-Hinton Medium Difco, with a low thymine and thymidine content, in sterile Petri plates (9 cm in diameter), with Tryptic Soy Broth (Difco).
(§3) For the sensitivity test, both paper filtering disks, imbibed of a fixed quantity of antibiotic and the relevant adduct disks, having the same total dose, but a lower molar ratio of the active principle were prepared.
(§4) To produce a bacterial growth, a strain of Staphylococcus aureus ATCC 6538 P (strain A) and two strains of field Staphylococcus aureus (strains B and C) were used.
(§5) The culture broths were prepared placing a loop of bacterial coating of an agar culture (12 h) in a test tube containing sterile Tryptic Soy Broth (5 ml), successively incubated at 37° C. for 4 hours.
(§6) When necessary, the suspensions have been diluted with sterile water in order to obtain a turbidity similar to the reference standard (0.5 McFarland). The Mueller-Hinton culture medium (150 ml) was sterilized at 121° C. for 15 minutes; a part of it was positioned on sterile Petri plates (9 cm in diameter), was let to solidify, while another part was cooled at approx. 45° C., was inoculated with the bacterial suspensions as above prepared (15 ml) and poured onto the solidified agar surface (10 ml per plate).
(§7) The sown plates were let dry (open) under a laminar flow hood for 15 minutes, then the disks were placed on their surface (four each plate), i.e. the adduct and antibiotic according to the two desired concentrations. The prepared plates (five each tests) were overturned and incubated at 37° C. for 16 hours. After this interval, the inhibition halos were produced. The results are shown in Table 1, where F.U. indicates the dosage recommended by Farmacopea Ufficiale Italiana, IX ed., vol. 1

[4] = tested on: Staphylococcus aureus; experiment: In vivo activity in mice infected with Staphylococcus aureus (ulcerative dermatitis), bacteriologic test; design: species or system albino mice; conditions: for Bacteriologic test after 5 days of therapy, negative / Bacteriologic test after 5 days of therapy, positive: number of subjects; for % of recovery: subjects with post-infective clinical symptoms, after 5 days of therapy
Experimental: The antibiotics and the respective adducts were used in solution with distilled water for injectables or with purified water for oral use. Common albino mice (average weight: 28 g), previously infected with Staphylococcus aureus (which is not resistant to the examined antibiotics), that had developed ulcerative dermatitis, with localized abscesses and popodermatitis […] were treated with the prepared solutions every 24 hours for 5 days. After this treatment, a bacteriologic checking through isolation was performed, using pads on the animal skin and inoculating the sample drawn from the […] on the plate.

[5] = tested on: field Staphylococcus aureus (strain B); experiment: Minimum inhibiting concentration (MIC) in vitro, dilutions in liquid medium, strain B; assay type: cell-based; conditions: Mueller-Hinton broth pH=7.4, 37° C. 18-24 hours; for MIC: Staphylococcus aureus
Experimental: as §1

[6] = tested on: field Staphylococcus aureus (strain B); experiment: Inhibition halos, diffusion method, strain B; assay type: cell-based
Source text: as §2, §3, §4, §5, §6, §7

[7] = tested on: Staphylococcus aureus ATCC 6538 P (strain A); experiment: Inhibition halos, diffusion method, strain A; assay type: cell-based
Source text: as §2, §3, §4, §5, §6, §7

[8] = tested on: S. aureus Smith BT13; experiment: Murine model of Staphylococcus aureus subcutaneous abscess; assay type: in vivo, swiss mice; conditions: for Size scored: abscess size scored 0 to 3 per mouse, group sum; for Total abscesses in 30 mice / Total score (size scored) in 30 mice: cephalosporin, sum of 25, 50, 100 mg/kg groups; for Cured infected mice of 30: parent cephalosporin, 25, 50, 100 mg/kg groups together
Experimental: 200 Male swiss mice were housed in temperature and humidity controlled animal rooms. The body weight on the day of infection was 25 g (SD 1.2, no 10). Culture media Brain Heart Infusion Broth (Difco) (BHI) and Brain Heart Infusion Agar (Merck) (BHIA) were prepared according to the manufacturer instructions and autoclaved for 15 mins at 121° C. S. aureus Smith BT13 was used at infecting organism. It was stored frozen at −80° C. […] For each test article, a stock solution was prepared by dissolving the drug with 5 ml of water for injectables (5 mg/ml drug concentration for cephalosporins and 3 mg/ml for the adducts). Dilutions 1:2 and 1:4 were prepared using the same vehicles. All solutions were prepared immediately before use. […] At 6 h after inoculation, groups of 10 mice were dosed intraperitoneally with 0.5 ml either of one of the antibiotic solutions, while an untreated control group of 10 mice was injected intraperitoneally with 0.5 ml sterile water. […] On the third day after infection, all mice were sacrificed and autopsied. Presence and size of abscesses were recorded. […] The activity of all compounds was compared by the non parametric Mann-Whitney U test. Statistical significance was for p<0.05.

[9] = Solubility in water; assay type: physicochemical; conditions: of water, pH=4.8
[10] = disk dose 4 μg (adduct: same total dose), 37° C. 16 hours
[11] = disk dose 8 μg (adduct: same total dose)
[12] = infected subjects without post-infective clinical symptoms (NO)
[13] = subjects with post-infective clinical symptoms (YES), treated every 24 hours for 5 days
[14] = disk dose 0.64 μg (F.U.) (adduct: same total dose)
[15] = disk dose 1.56 μg (F.U.) (adduct: same total dose)
[16] = disk dose 6 μg (adduct: same total dose)

Row | Compound | MIC [1] [µg/mL] | MIC [2] [µg/mL] | Halos on strain C [3, 10] [mm] | Bacteriologic test after 5 days of therapy, negative [4, 12] | Bacteriologic test after 5 days of therapy, positive [4, 12] | Bacteriologic test after 5 days of therapy, negative [4, 13] | Bacteriologic test after 5 days of therapy, positive [4, 13] | % of recovery [4] [%] | MIC [5] [µg/mL] | Halos on strain B [6, 10] [mm] | Halos on strain A [7, 10] [mm] | Size scored ([8]; cephalosporin 25 mg/kg/dose) | Size scored ([8]; cephalosporin 50 mg/kg/dose) | Size scored ([8]; cephalosporin 100 mg/kg/dose) | Total abscesses in 30 mice [8] [absc] | Total score (size scored) in 30 mice [8] | Cured infected mice of 30 [8] | Halos on strain C [3, 14] [mm] | Halos on strain C [3, 15] [mm] | Halos on strain B [6, 14] [mm] | further results
1 | CC1(C)S[C@@H]2[C@H](NC(=O)[C@H](N)c3ccc(O)cc3)C(=O)N2[C@H]1C(=O)O [Amoxycillin] | 0.08 (≈ 0.219 µM) | 0.1 (≈ 0.274 µM) | 9.7 | 0 | 0 | 13 | 0 | 100 | 0.2 (≈ 0.547 µM) | 13.0 | 12.0 | – | – | – | – | – | – | – | – | – | Halos on strain C [3, 11]: 10.0 mm; Halos on strain B [6, 11]: 14.0 mm; Halos on strain A [7, 11]: 13.2 mm
2 | Cc1nnc(SCC2=C(C(=O)O)N3C(=O)[C@@H](NC(=O)Cn4cnnn4)[C@H]3SC2)s1 [Cefazolin] | 0.54 (≈ 1.19 µM) | 0.5 (≈ 1.1 µM) | – | – | – | 15 | 0 | 100 | 0.64 (≈ 1.41 µM) | – | – | 17 | 4 | 0 | 8 | 21 | 22 | 10.1 | 10.9 | 8.5 | Halos on strain B [6, 15]: 10.1 mm; Halos on strain A [7, 14]: 11.0 mm; Halos on strain A [7, 15]: 12.2 mm
3 | CO/N=C(\C(=O)N[C@@H]1C(=O)N2C(C(=O)O)=C(COC(C)=O)CS[C@H]12)c1csc(N)n1 [Cefotaxime] | – | – | – | – | – | – | – | – | – | – | – | 11 | 3 | 0 | 6 | 14 | 24/30 | – | – | – | –
4 | CC1=C(C(=O)O)N2C(=O)[C@@H](NC(=O)[C@H](N)C3=CCC=CC3)[C@H]2SC1 [Cefradin] | 4.3 (≈ 12.3 µM) | 4 (≈ 11.4 µM) | – | – | – | 15 | 0 | 100 | 4.8 (≈ 13.7 µM) | – | – | – | – | – | – | – | – | 9.7 | 10.0 | 7.0 | solubility [9]: 4000 µg/mL (≈ 11400 µM); Halos on strain B [6, 15]: 9.0 mm; Halos on strain A [7, 14]: 10.0 mm; Halos on strain A [7, 15]: 12.1 mm
5 | CO/N=C(\C(=O)N[C@@H]1C(=O)N2C(C(=O)O)=C(CSc3nc(=O)c(=O)[nH]n3C)CS[C@H]12)c1csc(N)n1 [Ceftriaxone] | – | – | – | – | – | – | – | – | – | – | – | 17 | 14 | 10 | 19 | 41 | 11/30 | – | – | – | –
6 | Gentamicin | – | – | 12.8 | 0 | 0 | 13 | 0 | 100 | – | 11.8 | 12.1 | – | – | – | – | – | – | – | – | – | MIC on strain C [1]: 0.139 µg/mL; MIC on strain A [2]: 0.125 µg/mL; Halos on strain C [3, 16]: 13.9 mm; MIC on strain B [5]: 0.15 µg/mL; Halos on strain B [6, 16]: 12.0 mm; Halos on strain A [7, 16]: 13.1 mm
